Reference: patent US20260109721A1, “IONIZABLE CATIONIC LIPIDS INCORPORATING SILICON: SYNTHESIS AND LNP FORMULATION” (priority 2023, published 2026)

System: HepG2 cell line
Assay: In vitro toxicity study on HepG2 cell line (resazurin, viability and IC50)
Type: cell-based, human
Conditions: resazurin; for Viability (%) at different lipid concentrations, mean: HepG2 cells, 48 h post-treatment, relative to ethanol vehicle controls; for IC50: Homo sapiens, lipid toxicity, HepG2, 48 h post-treatment, 6.25-800 μM, read-out: IC50 value, μM (on HepG2 cell)
Description: The synthesized lipids were tested in term of in vitro transfection efficacy and toxicity on HeLa cells. In order to perform the mentioned biological tests, appropriate LNPs had to be formulated from the synthesized lipids. The formulation technique was different in Method A and B. The particle size, polydispersity index (PDI) and zeta potential of resulting LNPs were determined by means of Dynamic Light Scattering technique (DLS). Prior to biological testing the encapsulation efficiency (EE) of the loaded LNPs was determined by using RiboGreen RNA assay. In case of Method A Luc mRNA while in case of Method B GFP mRNA was transfected into the cells. In parallel with the transfection experiments, toxicity of the investigated LNPs was determined, in case of Method A resazurin assay while in case of Method B MTT assay was used. Additionally, the toxicity of the lipids was investigated on HepG2 cells and IC50 values were determined.
HepG2 cell line (human hepatocellular carcinoma) were maintained in DMEM medium supplemented with 10% FBS. Cell toxicity measurements were carried out in 384-well microtiter plates with 1000 cells seeded in each well. Test measurements were carried out in triplicate, and control measurements in quadruplicate. After an overnight incubation, the cells were treated with an increasing concentration of the test compounds (6.25, 12.5, 25, 50, 100, 200, 400, 800 μM). […] 48 h post-treatment, following visual inspection under an inverted microscope, cell viability was measured by resazurin assay. Viability of treated cells was calculated relative to that of ethanol vehicle controls. Concentration response curves (CRCs) were obtained and corresponding IC50 values were calculated where applicable and are shown in Table 9.
Resazurin reagent (Sigma-Aldrich) was dissolved in PBS (pH 7.4) at 0.15 mg/ml concentration, 0.22 μm filtered and aliquoted at −20° C., 10 μl resazurin stock solution was added to wells. After 5 hours incubation at 37° C. under 5% CO2 fluorescence (530 nm excitation/580 nm emission) was recorded on a multimode microplate reader.

| Structure (SMILES) | Viability (%) at different lipid concentrations, mean (6.25 μM lipid) [%] | Viability (%) at different lipid concentrations, mean (12.5 μM lipid) [%] | Viability (%) at different lipid concentrations, mean (25 μM lipid) [%] | Viability (%) at different lipid concentrations, mean (50 μM lipid) [%] | Viability (%) at different lipid concentrations, mean (100 μM lipid) [%] | Viability (%) at different lipid concentrations, mean (200 μM lipid) [%] | Viability (%) at different lipid concentrations, mean (400 μM lipid) [%] | Viability (%) at different lipid concentrations, mean (800 μM lipid) [%] | IC50 [µM] |
| --- | --- | --- | --- | --- | --- | --- | --- | --- | --- |
| CCCCC/C=C\C/C=C\CCCCCCCCOC(CCCCCCC/C=C\C/C=C\CCCCC)O[Si](C)(C)OCCCCCCN(CCCO)CCCO (stereo not shown) [Example 61, (24Z,27Z)-14-((8Z,11Z)-heptadeca-8,11-dien-1-yl)-4-(3-hydroxypropyl)-12,12-dimethyl-11,13,15-trioxa-4-aza-12-silatritriaconta-24,27-dien-1-ol] | 100.6 | 110.1 | 116.5 | 106.3 | 54.4 | 14.9 | −0.5 | −1.4 | 102 |
| CCCCC/C=C\C/C=C\CCCCCCCCOC(CCCCCCC/C=C\C/C=C\CCCCC)O[Si](C)(C)OCCCCCCN1CCCC1CO (stereo not shown) [Example 63, (1-((20Z,23Z)-10-((8Z,11Z)-heptadeca-8,11-dien-1-yl)-8,8-dimethyl-7,9,11-trioxa-8-silanonacosa-20,23-dien-1-yl)pyrrolidin-2-yl)methanol] | 99.3 | 96.4 | 96.6 | 98.3 | 94.8 | 91.6 | 85.3 | 74.5 | > 800 |
| CCCCC/C=C\C/C=C\CCCCCCCCOC(CCCCCCC/C=C\C/C=C\CCCCC)O[Si](C)(C)OCCCCCCN1CCC(CO)CC1 (stereo not shown) [Example 65, (1-((20Z,23Z)-10-((8Z,11Z)-heptadeca-8,11-dien-1-yl)-8,8-dimethyl-7,9,11-trioxa-8-silanonacosa-20,23-dien-1-yl)piperidin-4-yl)methanol] |  |  |  |  |  |  |  |  | 742 |
| CCCCCCCCO[Si](C)(C)O[Si](C)(C)OC(CCCCCCC)OCCCCCCN(C)CCN(C)CCN(C)CCCCCCOC(CCCCCCC)O[Si](C)(C)O[Si](C)(C)OCCCCCCCC (stereo not shown) [Example 83, N^1-(11-heptyl-3,13,13,15,15-pentamethyl-10,12,14,16-tetraoxa-3-aza-13,15-disilatetracosyl)-N^1,N^2-dimethyl-N^2-(6-((1-((1,1,3,3-tetramethyl-3-(octyloxy)disiloxaneyl)oxy)octyl)oxy)hexyl)ethane-1,2-diamine] | 100.51 | 98.95 | 100.30 | 101.93 | 83.41 | 41.91 | 2.25 | −1.25 | 176 |
